Numbered stars: 1 amine (or outer) side, 2 acyl side, 3 side chain; on linkers, the order of the positions; unused ones are H or OH. Square brackets hold non-standard residues; d marks the D form. Side chains are listed from the residue outwards. Peptide text beside a SMILES is read from it. * marks the point of attachment. C20 diacid = O=C(O)CCCCCCCCCCCCCCCCCCC(=O)*; C18 diacid = O=C(O)CCCCCCCCCCCCCCCCC(=O)*; αMePhe(2-F) = C[C@](N)(Cc1ccccc1F)C(=O)O; γGlu = O=C(O)[C@H](CCC(=O)[*:2])N[*:1]; αMeL = CC(C)C[C@](C)(N)C(=O)O; αMeP = C[C@@]1(C(=O)O)CCCN1; AEEA = NCCOCCOCC(=O)O; Aib = CC(C)(N)C(=O)O
Key:
[1] = target: T1, gastric inhibitory peptide receptor (GIPR) (Homo sapiens, UniProt P48546); experiment: cAMP pharmacological functional assay in presence of casein, hGIPR; type: cell-based; details: HEK293 cells expressing hGIPR, 0.1% Casein, geometric mean; read-out: hGIPR cAMP Rel EC50 nM (SEM, n)
T1 sequence (P48546 22-466): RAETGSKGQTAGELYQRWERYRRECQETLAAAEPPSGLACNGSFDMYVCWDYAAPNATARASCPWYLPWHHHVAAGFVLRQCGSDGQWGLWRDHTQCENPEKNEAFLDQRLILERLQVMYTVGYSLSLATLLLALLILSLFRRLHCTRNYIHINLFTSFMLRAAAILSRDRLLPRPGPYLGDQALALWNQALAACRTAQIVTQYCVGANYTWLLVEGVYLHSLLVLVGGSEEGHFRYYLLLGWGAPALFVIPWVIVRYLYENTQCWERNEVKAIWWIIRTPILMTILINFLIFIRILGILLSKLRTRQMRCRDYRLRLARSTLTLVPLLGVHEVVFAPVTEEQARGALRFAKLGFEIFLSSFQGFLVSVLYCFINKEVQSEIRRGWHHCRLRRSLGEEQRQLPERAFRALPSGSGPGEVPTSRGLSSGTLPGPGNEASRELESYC

[2] = target: human GLP-1 receptor (GLP-1R) (Homo sapiens, UniProt P43220); experiment: cAMP pharmacological functional assay in presence of casein, hGLP-1R; type: cell-based; details: HEK293 cells expressing hGLP-1R, 0.1% Casein, geometric mean; read-out: hGLP1R cAMP Rel EC50 nM (SEM, n)
Chain of human GLP-1 receptor (GLP-1R) (P43220 24-463): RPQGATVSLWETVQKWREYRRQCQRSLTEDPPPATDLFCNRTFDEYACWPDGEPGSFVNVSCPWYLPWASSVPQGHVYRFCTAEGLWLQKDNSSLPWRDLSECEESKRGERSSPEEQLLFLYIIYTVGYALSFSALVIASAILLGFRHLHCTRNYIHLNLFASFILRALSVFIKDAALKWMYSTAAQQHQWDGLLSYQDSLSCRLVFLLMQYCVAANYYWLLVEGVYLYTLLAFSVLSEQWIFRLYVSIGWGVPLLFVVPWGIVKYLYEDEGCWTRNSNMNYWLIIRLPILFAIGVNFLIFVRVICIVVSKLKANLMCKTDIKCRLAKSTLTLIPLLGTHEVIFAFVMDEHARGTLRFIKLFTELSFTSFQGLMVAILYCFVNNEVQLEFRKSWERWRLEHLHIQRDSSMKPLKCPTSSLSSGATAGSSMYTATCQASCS

EC50 [2] [nM] | SMILES | EC50 [1] [nM]
2.18 | CC[C@H](C)[C@H](NC(=O)[C@H](CCCCN)NC(=O)[C@H](CC(=O)O)NC(=O)[C@H](CC(C)C)NC(=O)[C@](C)(CC(C)C)NC(=O)[C@@H](NC(=O)[C@H](CO)NC(=O)[C@H](Cc1ccc(O)cc1)NC(=O)[C@H](CC(=O)O)NC(=O)[C@H](CO)NC(=O)[C@@H](NC(=O)[C@H](Cc1ccccc1)NC(=O)[C@@H](NC(=O)CNC(=O)[C@H](CCC(=O)O)NC(=O)C(C)(C)NC(=O)[C@@H](N)Cc1ccc(O)cc1)[C@@H](C)O)[C@@H](C)O)[C@@H](C)CC)C(=O)N[C@@H](C)C(=O)N[C@@H](CCC(N)=O)C(=O)NC(C)(C)C(=O)N[C@@H](C)C(=O)N[C@@H](Cc1ccccc1)C(=O)N[C@H](C(=O)N[C@@H](CCC(=O)O)C(=O)N[C@@H](Cc1ccc(O)cc1)C(=O)N[C@@H](CC(C)C)C(=O)N[C@H](C(=O)N[C@@H](CCCCNC(=O)COCCOCCNC(=O)COCCOCCNC(=O)CC[C@H](NC(=O)CCCCCCCCCCCCCCCCCCC(=O)O)C(=O)O)C(=O)NCC(=O)NCC(N)=O)[C@@H](C)CC)[C@@H](C)CC [Example 97] (H-Y[Aib]EGTFTSDYSI[αMeL]LDKIAQ[Aib]AFIEYLIK([AEEA-AEEA-γGlu-C20 diacid])GG-NH2) | 1.85
14.5 | CC[C@H](C)[C@H](NC(=O)[C@H](CC(C)C)NC(=O)[C@H](Cc1ccc(O)cc1)NC(=O)[C@H](CCC(=O)O)NC(=O)[C@@H](NC(=O)[C@H](Cc1ccccc1)NC(=O)[C@H](C)NC(=O)[C@@H]1CCCN1C(=O)[C@H](CCC(N)=O)NC(=O)[C@H](C)NC(=O)[C@H](CCCCNC(=O)COCCOCCNC(=O)COCCOCCNC(=O)CC[C@H](NC(=O)CCCCCCCCCCCCCCCCC(=O)O)C(=O)O)NC(=O)[C@H](CCCCN)NC(=O)[C@H](CC(=O)O)NC(=O)[C@H](CC(C)C)NC(=O)[C@H](CC(C)C)NC(=O)[C@@H](NC(=O)[C@H](CO)NC(=O)[C@H](Cc1ccc(O)cc1)NC(=O)[C@H](CC(=O)O)NC(=O)[C@H](CO)NC(=O)[C@@H](NC(=O)[C@H](Cc1ccccc1)NC(=O)[C@@H](NC(=O)CNC(=O)[C@H](CCC(=O)O)NC(=O)C(C)(C)NC(=O)[C@@H](N)Cc1ccc(O)cc1)[C@@H](C)O)[C@@H](C)O)[C@@H](C)CC)[C@@H](C)CC)C(=O)N[C@@H](CCC(=O)O)C(=O)NCC(=O)NCC(=O)N1CCC[C@H]1C(=O)N[C@@H](CO)C(=O)N[C@@H](CO)C(=O)NCC(N)=O [Example 274] (H-Y[Aib]EGTFTSDYSILLDKK([AEEA-AEEA-γGlu-C18 diacid])AQPAFIEYLIEGGPSSG-NH2) | > 30
2.16 | CC[C@H](C)[C@H](NC(=O)[C@H](CC(C)C)NC(=O)[C@H](Cc1ccc(O)cc1)NC(=O)[C@@H](CCC(=O)O)NC(=O)[C@@H](NC(=O)[C@H](Cc1ccccc1)NC(=O)[C@H](Cc1c[nH]cn1)NC(=O)C(C)(C)NC(=O)[C@H](CCC(N)=O)NC(=O)[C@H](C)NC(=O)[C@H](CCCCNC(=O)COCCOCCNC(=O)COCCOCCNC(=O)CC[C@H](NC(=O)CCCCCCCCCCCCCCCCC(=O)O)C(=O)O)NC(=O)[C@H](CCC(=O)O)NC(=O)[C@H](CC(=O)O)NC(=O)[C@H](CC(C)C)NC(=O)[C@](C)(CC(C)C)NC(=O)[C@@H](NC(=O)[C@H](CO)NC(=O)[C@H](Cc1c[nH]cn1)NC(=O)[C@H](CC(=O)O)NC(=O)[C@H](CO)NC(=O)[C@@H](NC(=O)[C@](C)(Cc1ccccc1F)NC(=O)[C@@H](NC(=O)CNC(=O)[C@H](CCC(=O)O)NC(=O)C(C)(C)NC(=O)[C@@H](N)Cc1ccc(O)cc1)[C@@H](C)O)[C@@H](C)O)[C@@H](C)CC)[C@@H](C)CC)C(=O)N[C@@H](CCC(=O)O)C(=O)NCC(=O)NCC(N)=O [Example 180] (H-Y[Aib]EGT[αMePhe(2-F)]TSDHSI[αMeL]LDEK([AEEA-AEEA-γGlu-C18 diacid])AQ[Aib]HFI[dE]YLIEGG-NH2) | –

Further lines, the compound ahead of its results:

SMILES | EC50 [2] [nM] | EC50 [1] [nM]
CC[C@H](C)[C@H](NC(=O)[C@H](CC(C)C)NC(=O)[C@H](Cc1ccc(O)cc1)NC(=O)[C@H](CCC(=O)O)NC(=O)[C@@H](NC(=O)[C@H](Cc1ccccc1)NC(=O)[C@H](C)NC(=O)[C@H](CCC(N)=O)NC(=O)[C@H](CCC(N)=O)NC(=O)[C@H](C)NC(=O)[C@H](CCCCNC(=O)COCCOCCNC(=O)COCCOCCNC(=O)CC[C@H](NC(=O)CCCCCCCCCCCCCCCCC(=O)O)C(=O)O)NC(=O)[C@H](CCC(=O)O)NC(=O)[C@H](CC(=O)O)NC(=O)[C@H](CC(C)C)NC(=O)[C@H](CC(C)C)NC(=O)[C@@H](NC(=O)[C@H](CO)NC(=O)[C@H](Cc1ccc(O)cc1)NC(=O)[C@H](CC(=O)O)NC(=O)[C@H](CO)NC(=O)[C@@H](NC(=O)[C@H](Cc1ccccc1)NC(=O)[C@@H](NC(=O)CNC(=O)[C@H](CCC(=O)O)NC(=O)[C@]1(C)CCCN1C(=O)[C@H](N)Cc1ccc(O)cc1)[C@@H](C)O)[C@@H](C)O)[C@@H](C)CC)[C@@H](C)CC)C(=O)N[C@@H](CCC(=O)O)C(=O)NCC(=O)NCC(=O)N1CCC[C@H]1C(=O)N[C@@H](CO)C(=O)N[C@@H](CO)C(=O)NCC(N)=O [Example 198] (H-[dY][αMeP]EGTFTSDYSILLDEK([AEEA-AEEA-γGlu-C18 diacid])AQQAFIEYLIEGGPSSG-NH2) | 0.139 | > 30
CC[C@H](C)[C@H](NC(=O)[C@H](CC(C)C)NC(=O)[C@H](Cc1ccc(O)cc1)NC(=O)[C@H](CCC(=O)O)NC(=O)[C@@H](NC(=O)[C@H](Cc1ccccc1)NC(=O)[C@H](C)NC(=O)[C@@H](NC(=O)[C@H](CCC(N)=O)NC(=O)[C@H](C)NC(=O)[C@H](CCCCNC(=O)COCCOCCNC(=O)COCCOCCNC(=O)CC[C@H](NC(=O)CCCCCCCCCCCCCCCCCCC(=O)O)C(=O)O)NC(=O)[C@H](CCCCN)NC(=O)[C@H](CC(=O)O)NC(=O)[C@H](CC(C)C)NC(=O)[C@H](CC(C)C)NC(=O)[C@@H](NC(=O)[C@H](CO)NC(=O)[C@H](Cc1ccc(O)cc1)NC(=O)[C@H](CC(=O)O)NC(=O)[C@H](CO)NC(=O)[C@@H](NC(=O)[C@H](Cc1ccccc1)NC(=O)[C@@H](NC(=O)CNC(=O)[C@H](CCC(=O)O)NC(=O)C(C)(C)NC(=O)[C@@H](N)Cc1ccc(O)cc1)[C@@H](C)O)[C@@H](C)O)[C@@H](C)CC)[C@@H](C)O)[C@@H](C)CC)C(=O)N[C@@H](CCC(=O)O)C(=O)NCC(=O)NCC(=O)N1CCC[C@H]1C(=O)N[C@@H](CO)C(=O)N[C@@H](CO)C(=O)NCC(=O)N[C@@H](C)C(=O)N1CCC[C@H]1C(=O)N1CCC[C@H]1C(=O)N1CCC[C@H]1C(=O)N[C@@H](CO)C(N)=O [Example 262] (H-Y[Aib]EGTFTSDYSILLDKK([AEEA-AEEA-γGlu-C20 diacid])AQTAFIEYLIEGGPSSGAPPPS-NH2) | 0.0943 | 0.13
CC[C@H](C)[C@H](NC(=O)[C@H](CC(C)C)NC(=O)[C@H](Cc1ccc(O)cc1)NC(=O)[C@H](CCC(=O)O)NC(=O)[C@@H](NC(=O)[C@H](Cc1ccccc1)NC(=O)[C@H](C)NC(=O)[C@H](CO)NC(=O)[C@H](CCC(N)=O)NC(=O)[C@H](C)NC(=O)[C@H](CCCCNC(=O)COCCOCCNC(=O)COCCOCCNC(=O)CC[C@H](NC(=O)CCCCCCCCCCCCCCCCCCC(=O)O)C(=O)O)NC(=O)[C@H](CCCCN)NC(=O)[C@H](CC(=O)O)NC(=O)[C@H](CC(C)C)NC(=O)[C@H](CC(C)C)NC(=O)[C@@H](NC(=O)[C@H](CO)NC(=O)[C@H](Cc1ccc(O)cc1)NC(=O)[C@H](CC(=O)O)NC(=O)[C@H](CO)NC(=O)[C@@H](NC(=O)[C@H](Cc1ccccc1)NC(=O)[C@@H](NC(=O)CNC(=O)[C@H](CCC(=O)O)NC(=O)C(C)(C)NC(=O)[C@@H](N)Cc1ccc(O)cc1)[C@@H](C)O)[C@@H](C)O)[C@@H](C)CC)[C@@H](C)CC)C(=O)N[C@@H](CCC(=O)O)C(=O)NCC(=O)NCC(=O)N1CCC[C@H]1C(=O)N[C@@H](CO)C(=O)N[C@@H](CO)C(=O)NCC(=O)N[C@@H](C)C(=O)N1CCC[C@H]1C(=O)N1CCC[C@H]1C(=O)N1CCC[C@H]1C(=O)N[C@@H](CO)C(N)=O [Example 263] (H-Y[Aib]EGTFTSDYSILLDKK([AEEA-AEEA-γGlu-C20 diacid])AQSAFIEYLIEGGPSSGAPPPS-NH2) | 0.0785 | 0.317
CC[C@H](C)[C@H](NC(=O)[C@H](CC(C)C)NC(=O)[C@H](Cc1ccc(O)cc1)NC(=O)[C@@H](CCC(=O)O)NC(=O)[C@@H](NC(=O)[C@H](Cc1ccccc1)NC(=O)[C@H](CCC(=O)O)NC(=O)C(C)(C)NC(=O)[C@H](CCC(N)=O)NC(=O)[C@H](C)NC(=O)[C@H](CCCCNC(=O)COCCOCCNC(=O)COCCOCCNC(=O)CC[C@H](NC(=O)CCCCCCCCCCCCCCCCCCC(=O)O)C(=O)O)NC(=O)[C@H](CCC(=O)O)NC(=O)[C@H](CC(=O)O)NC(=O)[C@H](CC(C)C)NC(=O)[C@](C)(CC(C)C)NC(=O)[C@@H](NC(=O)[C@H](CO)NC(=O)[C@@H](Cc1ccc(O)cc1)NC(=O)[C@H](CC(=O)O)NC(=O)[C@H](CO)NC(=O)[C@@H](NC(=O)[C@](C)(Cc1ccccc1F)NC(=O)[C@@H](NC(=O)CNC(=O)[C@H](CCC(=O)O)NC(=O)C(C)(C)NC(=O)[C@@H](N)Cc1ccc(O)cc1)[C@@H](C)O)[C@@H](C)O)[C@@H](C)CC)[C@@H](C)CC)C(=O)N[C@@H](CCC(=O)O)C(=O)NCC(=O)NCC(=O)N1CCC[C@H]1C(=O)N[C@@H](CO)C(=O)N[C@@H](CO)C(=O)NCC(=O)N[C@@H](C)C(=O)N1CCC[C@H]1C(=O)N1CCC[C@H]1C(=O)N1CCC[C@H]1C(=O)N[C@@H](CO)C(N)=O [Example 184] (H-Y[Aib]EGT[αMePhe(2-F)]TSD[dY]SI[αMeL]LDEK([AEEA-AEEA-γGlu-C20 diacid])AQ[Aib]EFI[dE]YLIEGGPSSGAPPPS-NH2) | – | 0.0477
